Legend:
[1] = intramuscular injection; cited from earlier work
[2] = Plasma concentration after oral administration; format: in vivo, mice; details: 100 mg/kg in 0.5% CMC suspension p.o.; 0.5 and 4 h; among 14b, 14g, 24a, 24c, 28a, 28c

plasma levels [2]	SMILES	lag to reach steady-state concentrations [1]
–	C[C@]12CC[C@@H]3c4ccc(O)cc4C[C@@H](CCCCCCCCC[S+]([O-])CCCC(F)(F)C(F)(F)F)[C@H]3[C@@H]1CC[C@@H]2O (stereo partly shown) [Compound 1, fulvestrant]	3–6 month
highest plasma levels	Cc1cc(F)cc(C)c1C(=O)c1sc2cc(O)ccc2c1Oc1ccc(/C=C/C(=O)O)cc1 [Compound 24c]	–
highest plasma levels	Cc1ccc(C(=O)c2sc3cc(O)ccc3c2Oc2ccc(/C=C/C(=O)O)cc2)c(C)c1 [Compound 28a, (E)-3-(4-((2-(2,4-dimethylbenzoyl)-6-hydroxybenzo[b]thiophen-3-yl)oxy)phenyl)acrylic acid]	–
highest plasma levels	Cc1cc(Cl)cc(C)c1C(=O)c1sc2cc(O)ccc2c1Oc1ccc(/C=C/C(=O)O)cc1 [Compound 28c, (E)-3-(4-((2-(4-chloro-2,6-dimethylbenzoyl)-6-hydroxybenzo[b]thiophen-3-yl)oxy)phenyl)acrylic acid]	–
